From patent US8288419B2, “Aminopyrazole derivatives” (Actelion Pharmaceuticals, Ltd, priority 2007, dated 2012)

What follows are compounds tested against T1, recombinant human ALX receptor (Homo sapiens, UniProt P25090) (assay: Intracellular calcium measurements (FLIPR), ALX receptor agonistic activity). Conditions: HEK293-hALXR-Gα16 cells, Fluo-4 calcium fluorescence, normalized to 10 nM WKYMVm.
T1 construct: expressed in transfected cells; host or cells: HEK293 (HEK293-hALXR-Gα16)
T1 sequence (P25090 1-351): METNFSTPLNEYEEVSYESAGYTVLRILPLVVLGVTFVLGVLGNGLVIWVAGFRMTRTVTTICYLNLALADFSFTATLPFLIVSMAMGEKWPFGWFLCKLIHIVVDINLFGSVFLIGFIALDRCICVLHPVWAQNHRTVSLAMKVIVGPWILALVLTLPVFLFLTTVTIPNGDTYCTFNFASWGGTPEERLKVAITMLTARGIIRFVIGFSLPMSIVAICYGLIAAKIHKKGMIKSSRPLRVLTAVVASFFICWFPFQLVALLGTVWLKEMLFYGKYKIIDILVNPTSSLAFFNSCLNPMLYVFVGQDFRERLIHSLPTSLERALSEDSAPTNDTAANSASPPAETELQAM
Type: cell-based
Description: The ALX receptor agonistic activity of the compounds of formula (I) is determined in accordance with the following experimental method.
Intracellular Calcium Measurements:
Cells expressing recombinant human ALX receptor and the G-protein Gα16 (HEK293-hALXR-Gα16) were grown to 80% confluency in Growing Medium (GM). […] Stock solutions of test compounds were made up at a concentration of 10 mM in DMSO, and serially diluted in AB to concentrations required for activation dose response curves. WKYMVm (Phoenix Peptides) was used as a reference agonist. A FLIPR384 instrument (Molecular Devices) was operated according to the manufacturer's standard instructions, adding 4 μl of test compound dissolved at 10 mM in DMSO and diluted prior to the experiment in assay buffer to obtain the desired final concentration. Changes in fluorescence were monitored before and after the addition of test compounds at lex=488 nm and lem=540 nm. Emission peak values above base level after compounds addition were exported after base line subtraction. Values were normalized to high-level control (WKYMVm compound, 10 nM final concentration) after subtraction of the base line value (AB addition). The program XLlfit 3.0 (IDBS) was used to fit the data to a single site dose response curve of the equation (A+((B−A)/(1+((C/x)^D)))) and to calculate the EC50 values.

Structure (SMILES) | EC50
CC(=O)CCCCn1cc(NC(=O)OC(C)c2ccccc2)cn1 (racemic) [Example 125, [1-(5-Oxo-hexyl)-1H-pyrazol-4-yl]-carbamic acid (RS)-1-phenyl-ethyl ester] | 0.069 µM
O=C(Nc1cnn(Cc2ccc(C(=O)C3CC3)o2)c1)OCc1ccccc1Cl [Example 3, [1-(5-Cyclopropanecarbonyl-furan-2-ylmethyl)-1H-pyrazol-4-yl]-carbamic acid 2-chloro-benzyl ester] | 0.205 µM
CC(=O)c1ccc(Cn2ccc(NC(=O)OCc3cc(F)c(F)cc3F)n2)o1 [Example 24, [1-(5-Acetyl-furan-2-ylmethyl)-1H-pyrazol-3-yl]-carbamic acid 2,4,5-trifluoro-benzyl ester] | 0.033 µM
CC(=O)c1ccc(Cn2ccc(NC(=O)/C=C/c3cccc(C(F)(F)F)c3F)n2)o1 [Example 45, (E)-N-[1-(5-Acetyl-furan-2-ylmethyl)-1H-pyrazol-3-yl]-3-(2-fluoro-3-trifluoromethyl-phenyl)-acrylamide] | 0.095 µM
COc1ccc(-c2ocnc2C(=O)Nc2ccn(Cc3ccc(C(C)=O)o3)n2)cc1 [Example 48, 5-(4-Methoxy-phenyl)-oxazole-4-carboxylic acid [1-(5-acetyl-furan-2-ylmethyl)-1H-pyrazol-3-yl]-amide] | 0.198 µM
CC(=O)c1ccc(Cn2cc(NC(=O)OCc3ccc(C(F)(F)F)cc3)cn2)o1 [Example 63, [1-(5-Acetyl-furan-2-ylmethyl)-1H-pyrazol-4-yl]-carbamic acid 4-trifluoromethyl-benzyl ester] | 0.053 µM
COc1cccc(/C=C/C(=O)Nc2cnn(Cc3ccc(C(C)=O)o3)c2)c1OC [Example 93, (E)-N-[1-(5-Acetyl-furan-2-ylmethyl)-1H-pyrazol-4-yl]-3-(2,3-dimethoxy-phenyl)-acrylamide] | 0.21 µM
CC(=O)c1ccc(Cn2cc(NC(=O)c3ncsc3-c3cccc(Cl)c3)cn2)o1 [Example 120, 5-(3-Chloro-phenyl)-thiazole-4-carboxylic acid [1-(5-acetyl-furan-2-ylmethyl)-1H-pyrazol-4-yl]-amide] | 0.202 µM
CC(=O)CCCCn1cc(NC(=O)c2ncoc2-c2ccccc2)cn1 [Example 152, 5-Phenyl-oxazole-4-carboxylic acid [1-(5-oxo-hexyl)-1H-pyrazol-4-yl]-amide] | 0.191 µM
CC(=O)CCCCn1cc(NC(=O)/C=C/c2ccccc2Cl)cn1 [Example 157, (E)-3-(2-Chloro-phenyl)-N-[1-(5-oxo-hexyl)-1H-pyrazol-4-yl]-acrylamide] | 0.33 µM
CC(=O)CCCCn1ccc(NC(=O)OCc2ccc(F)c(F)c2)n1 [Example 169, [1-(5-Oxo-hexyl)-1H-pyrazol-3-yl]-carbamic acid 3,4-difluoro-benzyl ester] | 0.363 µM
CC(=O)CCCCn1ccc(NC(=O)c2ncoc2-c2ccccc2)n1 [Example 179, 5-Phenyl-oxazole-4-carboxylic acid [1-(5-oxo-hexyl)-1H-pyrazol-3-yl]-amide] | 0.955 µM
CC(=O)CCCCn1ccc(NC(=O)/C=C/c2ccccc2C(F)(F)F)n1 [Example 181, (E)-N-[1-(5-Oxo-hexyl)-1H-pyrazol-3-yl]-3-(2-trifluoromethyl-phenyl)-acrylamide] | 0.067 µM
CC(F)(F)c1ccc(Cn2ccc(NC(=O)OCc3ccccc3Cl)n2)o1 [Example 197, {1-[5-(1,1-Difluoro-ethyl)-furan-2-ylmethyl]-1H-pyrazol-3-yl}-carbamic acid 2-chloro-benzyl ester] | 0.029 µM
CC(F)(F)c1ccc(Cn2ccc(NC(=O)c3ncoc3-c3ccccc3)n2)o1 [Example 198, 5-Phenyl-oxazole-4-carboxylic acid {1-[5-(1,1-difluoro-ethyl)-furan-2-ylmethyl]-1H-pyrazol-3-yl}-amide] | 0.31 µM
CC(F)(F)c1ccc(Cn2cc(NC(=O)OCc3ccccc3Cl)cn2)o1 [Example 199, {1-[5-(1,1-Difluoro-ethyl)-furan-2-ylmethyl]-1H-pyrazol-4-yl}-carbamic acid 2-chloro-benzyl ester] | 0.033 µM
CC(F)(F)c1ccc(Cn2cc(NC(=O)c3ncoc3-c3ccccc3)cn2)o1 [Example 200, 5-Phenyl-oxazole-4-carboxylic acid {1-[5-(1,1-difluoro-ethyl)-furan-2-ylmethyl]-1H-pyrazol-4-yl}-amide] | 0.046 µM

Structure (SMILES) | EC50
CC(F)(F)CCCCn1ccc(NC(=O)OCc2ccccc2Cl)n1 [Example 201, [1-(5,5-Difluoro-hexyl)-1H-pyrazol-3-yl]-carbamic acid 2-chloro-benzyl ester] | 0.154 µM
CC(F)(F)CCCCn1ccc(NC(=O)c2ncoc2-c2ccccc2)n1 [Example 202, 5-Phenyl-oxazole-4-carboxylic acid [1-(5,5-difluoro-hexyl)-1H-pyrazol-3-yl]-amide] | 0.899 µM
CC(F)(F)CCCCn1cc(NC(=O)OCc2ccccc2Cl)cn1 [Example 203, [1-(5,5-Difluoro-hexyl)-1H-pyrazol-4-yl]-carbamic acid 2-chloro-benzyl ester] | 0.028 µM
CC(F)(F)CCCCn1cc(NC(=O)c2ncoc2-c2ccccc2)cn1 [Example 204, 5-Phenyl-oxazole-4-carboxylic acid [1-(5,5-difluoro-hexyl)-1H-pyrazol-4-yl]-amide] | 0.195 µM
CC(F)CCCCn1cc(NC(=O)OCc2ccccc2Cl)cn1 (stereo not shown) [Example 236, [1-(5-Fluoro-hexyl)-1H-pyrazol-4-yl]-carbamic acid 2-chloro-benzyl ester] | 0.118 µM
CC(F)(F)c1ccc(Cn2ccc(NC(=O)OCc3cccc(C(F)(F)F)c3)n2)o1 [Example 280, {1-[5-(1,1-Difluoro-ethyl)-furan-2-ylmethyl]-1H-pyrazol-3-yl}-carbamic acid 3-trifluoromethyl-benzyl ester] | 0.027 µM
Cc1ccc(F)c(COC(=O)Nc2ccn(CCCCC(C)(F)F)n2)c1F [Example 282, [1-(5,5-Difluoro-hexyl)-1H-pyrazol-3-yl]-carbamic acid 2,6-difluoro-3-methyl-benzyl ester] | 0.025 µM
CCc1ccccc1COC(=O)Nc1cnn(Cc2ccc(C(C)(F)F)o2)c1 [Example 314, {1-[5-(1,1-Difluoro-ethyl)-furan-2-ylmethyl]-1H-pyrazol-4-yl}-carbamic acid 2-ethyl-benzyl ester] | 0.027 µM
CC(=O)c1ccc(Cn2cc(NC(=O)c3ncoc3-c3ccc(C)cc3)cn2)o1 [Example 331, 5-p-Tolyl-oxazole-4-carboxylic acid [1-(5-acetyl-furan-2-ylmethyl)-1H-pyrazol-4-yl]-amide] | 0.085 µM
CC(=O)c1ccc(Cn2ccc(NC(=O)c3nc(C)oc3-c3cccc(-c4ccccc4)c3)n2)o1 [Example 354, 5-Biphenyl-3-yl-2-methyl-oxazole-4-carboxylic acid [1-(5-acetyl-furan-2-ylmethyl)-1H-pyrazol-3-yl]-amide] | 0.06 µM
CC(=O)c1ccc(Cn2ccc(NC(=O)c3ncoc3-c3cccc(-c4ccccc4)c3)n2)o1 [Example 356, 5-Biphenyl-3-yl-oxazole-4-carboxylic acid [1-(5-acetyl-furan-2-ylmethyl)-1H-pyrazol-3-yl]-amide] | 0.029 µM
CC(=O)c1cc(Cn2cc(NC(=O)c3ncoc3-c3ccccc3)cn2)on1 [Example 362, 5-Phenyl-oxazole-4-carboxylic acid [1-(3-acetyl-isoxazol-5-ylmethyl)-1H-pyrazol-4-yl]-amide] | 1.47 µM
CC(=O)c1cccc(Cn2cc(NC(=O)c3ncoc3-c3ccccc3)cn2)n1 [Example 364, 5-Phenyl-oxazole-4-carboxylic acid [1-(6-acetyl-pyridin-2-ylmethyl)-1H-pyrazol-4-yl]-amide] | 0.809 µM
CC(=O)c1cccc(Cn2cc(NC(=O)OCc3ccccc3Cl)cn2)c1 [Example 366, [1-(3-Acetyl-benzyl)-1H-pyrazol-4-yl]-carbamic acid 2-chloro-benzyl ester] | 0.056 µM
CC(=O)c1ccc(Cn2ccc(NC(=O)c3ncoc3-c3ccccc3)n2)s1 [Example 376, 5-Phenyl-oxazole-4-carboxylic acid [1-(5-acetyl-thiophen-2-ylmethyl)-1H-pyrazol-3-yl]-amide] | 0.074 µM
COCCc1cccc(-c2ocnc2C(=O)Nc2ccn(Cc3ccc(C(C)=O)o3)n2)c1 [Example 379, 5-[3-(2-Methoxy-ethyl)-phenyl]-oxazole-4-carboxylic acid [1-(5-acetyl-furan-2-ylmethyl)-1H-pyrazol-3-yl]-amide] | 0.018 µM
CC(=O)c1ccc(Cn2ccc(NC(=O)c3ncoc3-c3cccc(C(=O)OC(C)(C)C)c3)n2)o1 [Example 381, 3-{4-[1-(5-Acetyl-furan-2-ylmethyl)-1H-pyrazol-3-ylcarbamoyl]-oxazol-5-yl}-benzoic acid tert-butyl ester] | 0.035 µM
